Values after ≈ are worked out from the molar mass of the structure shown.
Legend:
HSV-1(E-377) = assay: plaque reduction, HSV-1(E-377) in Vero cells; format: cell-based, Herpes simplex virus type 1; details: Human alphaherpesvirus 1, plaque reduction 50%, read-out: MIC50
Experimental: (§1) After the adsorption period, the infected cell monolayers were treated in duplicate with serial dilutions of the test compound. Duplicate cell controls containing medium alone and virus controls containing medium and virus were run simultaneously with the test compound. […] Plaques visible to the unaided eye were counted and the mean number of plaques in the duplicate wells for each compound concentration tested and for the untreated, virus infected controls were determined.

HSV-1(123) = assay: plaque reduction, HSV-1(123) in Vero cells; format: cell-based, Herpes simplex virus type 1; details: Human alphaherpesvirus 1, plaque reduction 50%, read-out: MIC50
Experimental: as §1

Herpesvirus 1 = assay: in vivo activity against intraperitoneal Herpesvirus 1 challenge in mice; set-up: species or system mouse infected with Herpesvirus 1 (strain 123); details: for No. Dead/No. Infected: 7 doses; for GMTD (geometric mean time to death): monitored daily for 21 days
Experimental: Four-week-old female outbred Swiss mice (CD 1, VAF+, Charles River Labs) were housed 5 per Microisolator® cage. Feed and water were supplied ad libitum. Fifteen mice were randomly assigned to each of the following treatment groups:
2. diluent (0.4% CMC/PBS controls)
3. 100 mg/kg test compound
4. 32 mg/kg test compound
5. 10 mg/kg test compound
6. 3.2 mg/kg test compound
Test compounds were diluted in 0.4% carboxymethylcellulose (CMC) prepared in phosphate buffered saline (PBS) at concentrations consistent with dosing at 0.1 ml per 10 q of body weight. Compounds were administered subcutaneously once daily for a total of 7 doses. Five mice in each treatment group served as uninfected toxicity controls. The remaining ten mice in each group were challenged intraperitoneally with an LD90 dose of the twelfth in vivo passage of Herpesvirus 1 (strain 123). Virus challenge was administered two hours after the first dose of compound was given. Mortality was monitored daily for 21 days. The mortality rates, average day of death, geometric mean time to death and virus rating were calculated for each treatment group.

in vitro = details: human, human foreskin fibroblasts, MTT Assay
[1] = drug cytotoxicity in Vero cells (CPE-inhibition assay); details: monkey, vero cells
Vero cells = assay: as above; details: Vero
[2] = test system: Human Immunodeficiency Virus (HIV); assay: HIV CPE inhibition assay in ATH8 cells; format: cell-based; set-up: ID50: unit not given beside the values
Experimental: The ATH8 human T-cell line expresses high levels of the CD4 surface antigen and is quite sensitive to the cytopathogenic effect (CPE) of HIV. The cells were propagated in RPMI 1640 medium supplemented with 4mM glutamine, 15% heat-inactivated fetal bovine serum (Biocell), antibiotics (50 units of penicillin and […] of streptomycin per ml), and 50 units of recombinant-derived human interleukin-2 (ala-125; AMGen Biologicals) per ml.
The clone H9 cell line is another CD4^+ human T-cell line which is permissive for HIV replication but largely resistant to virus induced CPE. H9 cells productively infected with the HTLV IIIB strain of HIV served as the source of infectious virus. These cells were propagated in RPMI 1640 medium supplemented with glutamine and antibiotics as described above, and with 20% heat-inactivated fetal bovine serum. Freshly harvested, undiluted culture supernatant from the H9/HTLV-IIIB producer cells was used for infectious virus inoculum.
The screening of compounds for antiviral activity was performed using a modification of the CPE inhibition assay originally developed by Broder and co workers. This assay is based on the ability of uninfected ATH8 cells to grow and form a pellet at the bottom of a culture tube. Starting about 4 days after HIV addition, infected ATH8 cells begin to die and the pellet starts to break up. By day 10 a clear differential is observable in the size of the cell pellet in uninfected control wells versus infected control wells. The protective effect of test compounds can be assessed by adding them at varying concentrations to the cultured cells at the time of virus infection, then monitoring the status of the cell pellet.
ATH8 cells were used as the primary target in the HIV induced CPE inhibition assay. Cells were treated with polybrene (2 ug/ml in growth medium) for 30 minutes at 37° C., then collected by gentle centrifugation (40×g for 15 minutes at room temperature) and resuspended in clarified (8000×g for 15 minutes at 4° C.) supernate freshly harvested from 48 hours post passage H9/HTL IIIB cells. Following a 60-minute adsorption period at 37° C., the cells were dispensed into the U-bottom wells of 96-well trays (1×10^4 cells in 0.1 ml per well). An equal volume (0.1 ml) of supplemented RPMI 1640 medium containing test compound and twice the normal concentration of interleukin-2 was then added to each well. Test compounds were evaluated at seven half-log dilutions ranging from 100 uq/ml to 0.1 uq/ml. […]
Between 7 and 10 days post infection, all wells were visually monitored for the degree of CPE inhibition as reflected by cell pellet size, and aliquots were taken from selected wells for determination of cell number and viability (based on trypan blue dye exclusion).

Structure (SMILES): Nc1nc2c(ncn2C2CC(CO)C2CO)c(=O)[nH]1 (stereo not shown) [Example 1I, 9-(2',3'-Bis(hydroxymethyl)cyclobutyl)guanine]
- EC50 (HSV-1(E-377)): 0.5 µg/mL (≈ 1.88 µM)
- EC50 (HSV-1(123)): 1 µg/mL (≈ 3.77 µM)
- VR (virus rating, GMTD of experimental/GMTD of diluent-treated control) (Herpesvirus 1; 3.2 mg/kg s.c.): 1.3
- No. Dead/No. Infected (Herpesvirus 1; 3.2 mg/kg s.c. once daily): 8/10
- GMTD (geometric mean time to death) (Herpesvirus 1; 3.2 mg/kg s.c.): 10.8
- VR (virus rating, GMTD of experimental/GMTD of diluent-treated control) (Herpesvirus 1; 10 mg/kg s.c.): 1.6
- No. Dead/No. Infected (Herpesvirus 1; 10 mg/kg s.c. once daily): 5/10
- GMTD (geometric mean time to death) (Herpesvirus 1; 10 mg/kg s.c.): 13.0
- VR (virus rating, GMTD of experimental/GMTD of diluent-treated control) (Herpesvirus 1; 32 mg/kg s.c.): 2.5
- No. Dead/No. Infected (Herpesvirus 1; 32 mg/kg s.c. once daily): 0/10
- GMTD (geometric mean time to death) (Herpesvirus 1; 32 mg/kg s.c.): 21.0
- viability (in vitro; 3.2 ug/ml): 79%
- viability (in vitro; 10 ug/ml): 76%
- viability (in vitro; 32 ug/ml): 72%
- viability (in vitro; 100 ug/ml): 62%
- MCC [1]: 100 µg/mL
- MCC ([1]; MTC (minimum drug concentration causing any cytotoxicity), Vero, HSV-2 (MS) experiment): 320 µg/mL
- MTC (minimum drug concentration causing any cytotoxicity) (Vero cells; HSV-2 (BW9787) TK- experiment): 100 µg/mL
- MTC (minimum drug concentration causing any cytotoxicity) (Vero cells; HSV-2 (MS) experiment): 320 µg/mL

Structure (SMILES): Nc1ncnc2c1ncn2C1CC(CO)C1CO (stereo not shown) [Example 4C, 9-(2',3'-Bis(hydroxymethyl)cyclobutyl)adenine]
- ID50 [2]: < 0.1
- TI [2]: 32
- VR [2]: 3.5
